Assay results reported in patent US20250304623A1, “PEPTIDES FOR INTRACELLULAR DELIVERY” (UNIVERSIDADE DE SANTIAGO DE COMPOSTELA, priority 2022, published 2025).
*: point of attachment. NHNH2 = NN*

Experiments:
Assay type in all cases: cell-based
HepG2 cells [1] = assay: RLuc pDNA delivery, robotic library screening, HepG2
Method in brief: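 After the 4 h exposure the complexes were replaced with fresh DMEM plus 10% FBS. At 72 hours cells were washed with HBSS, kept 30 minutes at 37° C. for basal readings, then given coelenterazine h (5 μM final) for 10 minutes before total luminescence was read. Triplicate means had untransfected background subtracted and were also expressed relative to Lipofectamine® 2000 set at 1.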

HepG2 cells [2] = assay: EGFP mRNA delivery, robotic library screening, HepG2; settings: HepG2 cells
Method in brief: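 This robotic library screen tested delivery of CleanCap EGFP mRNA (5moU) into HepG2 cells using amphiphilic molecules. Complexes were freshly prepared at room temperature and added to the cells, and the medium was then replaced with fresh DMEM plus 10% FBS. Total EGFP fluorescence was measured in a plate reader at 72 h in triplicate, with untreated-cell background subtracted.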

[3] = system: ARPE19 cells expressing EGFP; assay: EGFP-targeting siRNA delivery (GFP silencing vs siMOCK), ARPE19
Protocol: (§1) To generate an EGFP expressing HeLa cell line, HeLa cells were transfected with EGFP pDNA (pEGFP-C1, Clontech) and stable transfectants were selected with 400 μg/mL of G-418 (Millipore). Green clones were selected by epifluorescence microscopy and tested for EGFP expression stability through several passages. […] All other EGFP-expressing cell lines were obtained in a similar way from parent non-EGFP-expressing cell lines.
(§2) Cells expressing EGFP were seeded in a 96 well plate the day before the experiment at a concentration of 50,000 cell/mL (100 μL/w) in DMEM+10% FBS+1% Gln-Abt. For robotic library screening, the delivery of an EGFP-targeting siRNA (EGFP: enhanced green fluorescent protein, Ambion® Silencer® GFP Positive Control siRNA (siGFP) (AM4626)) in six different cell lines expressing EGFP was performed. […] The mixture was shaken for 30 min at room temperature (rt) before the addition to the cells. The cell medium was aspirated, and cells were washed twice with PBS. Finally, 50 μL of the solution of siRNA/amphiphile complexes were added to the cells and incubated for 4 h. After transfection, the medium was replaced by 100 μL of fresh DMEM supplemented with 10% FBS. The fluorescence knockdown was quantified after 72 h in a plate reader, by comparison with cells transfected with a non-targeting siRNA control (siMOCK, Silencer™ Negative Control No. 1 siRNA (siMOCK) (AM4611)). EGFP knockdown was compared with Lipofectamine® RNAiMAX silencing efficiency (30-60% depending on cell line, defined with a numeric value in the below tables). All experiments were done in triplicate.
(§3) Tables 1-7: RLuc (pDNA) or EGFP (mRNA) expression levels were normalized to Lipofectamine reagents (value=1) and expressed as fold-times signal increase. In the case of siRNA, the siRNA treated cells fluorescence was compared with siMOCK control fluorescence, while Cas9-RNP mediated knockout was measured against the fluorescence of untreated cells. In both siRNA and Cas9-RNP, values are expressed as % fluorescence reduction. Amphiphile concentration was 5 μM in all cases. All experiments were performed in triplicate.
(§4) Tables 20-25 show the mean (triplicates) percentage of GFP-silencing, accounted by fluorescence intensity decrease relative to a non-targeting siRNA (siMOCK) control, measured after the transfection of siRNA by different amphiphiles at different concentrations in a variety of cell lines. Background values, accounted by untreated control cells, were subtracted for processing.

[4] = system: Hek293 cells expressing EGFP; assay: EGFP-targeting siRNA delivery (GFP silencing vs siMOCK), Hek293
Protocol: as §1, §2, §3, §4

## Ac-RK*LRRK*L-NH2 (Ac-RK(NHNH2)LRRK(NHNH2)L-NH2; not fully specified; printed as Ac-RK*LRRK*L-NH2; also: K*2,K*6: native or modified lysine (ε-amide to a linker)) [Peptide 7.2]
HepG2 cells [1]; Dodecanal, 10 μM
  mean luminescent intensity (RLuc pDNA): 4114 RLU
HepG2 cells [1]; Dodecanal, 15 μM
  mean luminescent intensity (RLuc pDNA): 1202 RLU
HepG2 cells [1]; Myristoleyl, 5 μM
  mean luminescent intensity (RLuc pDNA): 11364 RLU
HepG2 cells [1]; Myristoleyl, 10 μM
  mean luminescent intensity (RLuc pDNA): 23772 RLU
HepG2 cells [1]; Myristoleyl, 15 μM
  mean luminescent intensity (RLuc pDNA): 25742 RLU
HepG2 cells [2]; Dodecanal, 5 μM
  mean fluorescence intensity after transfection of EGFP mRNA: 75
HepG2 cells [2]; Dodecanal, 10 μM
  mean fluorescence intensity after transfection of EGFP mRNA: −468
HepG2 cells [2]; Dodecanal, 15 μM
  mean fluorescence intensity after transfection of EGFP mRNA: 268
HepG2 cells [2]; Myristoleyl, 5 μM
  mean fluorescence intensity after transfection of EGFP mRNA: 678
HepG2 cells [2]; Myristoleyl, 10 μM
  mean fluorescence intensity after transfection of EGFP mRNA: 752
HepG2 cells [2]; Myristoleyl, 15 μM
  mean fluorescence intensity after transfection of EGFP mRNA: −60
[3]; Dodecanal, 5 μM
  percentage of GFP-silencing relative to siMOCK: 4%
[3]; Dodecanal, 10 μM
  percentage of GFP-silencing relative to siMOCK: 10%
[3]; Dodecanal, 15 μM
  percentage of GFP-silencing relative to siMOCK: 20%
[3]; Myristoleyl, 5 μM
  percentage of GFP-silencing relative to siMOCK: 14%
[3]; Myristoleyl, 10 μM
  percentage of GFP-silencing relative to siMOCK: 28%
[4]; Dodecanal, 15 μM
  percentage of GFP-silencing relative to siMOCK: 7%
[4]; Myristoleyl, 5 μM
  percentage of GFP-silencing relative to siMOCK: −8%

## Ac-RRLK*RLK*RRLK*RL-NH2 [Peptide 13.3]
HepG2 cells [1]; Myristoleyl, 5 μM
  mean luminescent intensity (RLuc pDNA): 91601 RLU
HepG2 cells [1]; Myristoleyl, 10 μM
  mean luminescent intensity (RLuc pDNA): 54569 RLU
HepG2 cells [1]; Myristoleyl, 15 μM
  mean luminescent intensity (RLuc pDNA): 59751 RLU
HepG2 cells [1]; Oleyl, 15 μM
  mean luminescent intensity (RLuc pDNA): −1067 RLU
HepG2 cells [1]; Palmitoleyl, 5 μM
  mean luminescent intensity (RLuc pDNA): 70999 RLU
HepG2 cells [1]; Palmitoleyl, 15 μM
  mean luminescent intensity (RLuc pDNA): 16521 RLU
HepG2 cells [1]; Petroselinyl, 5 μM
  mean luminescent intensity (RLuc pDNA): 76240 RLU
HepG2 cells [2]; Dodecanal, 10 μM
  mean fluorescence intensity after transfection of EGFP mRNA: 674
HepG2 cells [2]; Dodecanal, 15 μM
  mean fluorescence intensity after transfection of EGFP mRNA: 606
HepG2 cells [2]; Oleyl, 5 μM
  mean fluorescence intensity after transfection of EGFP mRNA: 1087
HepG2 cells [2]; Palmitoleyl, 5 μM
  mean fluorescence intensity after transfection of EGFP mRNA: 689
HepG2 cells [2]; Palmitoleyl, 10 μM
  mean fluorescence intensity after transfection of EGFP mRNA: 986
HepG2 cells [2]; Palmitoleyl, 15 μM
  mean fluorescence intensity after transfection of EGFP mRNA: 974
HepG2 cells [2]; Petroselinyl, 10 μM
  mean fluorescence intensity after transfection of EGFP mRNA: 1128
HepG2 cells [2]; Petroselinyl, 15 μM
  mean fluorescence intensity after transfection of EGFP mRNA: 967
[3]; Dodecanal, 5 μM
  percentage of GFP-silencing relative to siMOCK: 29%
[3]; Dodecanal, 10 μM
  percentage of GFP-silencing relative to siMOCK: 51%
[3]; Dodecanal, 15 μM
  percentage of GFP-silencing relative to siMOCK: 37%
[3]; Palmitoleyl, 10 μM
  percentage of GFP-silencing relative to siMOCK: 11%
[3]; Petroselinyl, 5 μM
  percentage of GFP-silencing relative to siMOCK: 11%
[3]; Petroselinyl, 10 μM
  percentage of GFP-silencing relative to siMOCK: 13%
[3]; Petroselinyl, 15 μM
  percentage of GFP-silencing relative to siMOCK: −42%
[4]; Dodecanal, 5 μM
  percentage of GFP-silencing relative to siMOCK: 52%
[4]; Dodecanal, 10 μM
  percentage of GFP-silencing relative to siMOCK: 44%
[4]; Dodecanal, 15 μM
  percentage of GFP-silencing relative to siMOCK: 48%
[4]; Myristoleyl, 15 μM
  percentage of GFP-silencing relative to siMOCK: 25%
[4]; Oleyl, 10 μM
  percentage of GFP-silencing relative to siMOCK: 2%
[4]; Palmitoleyl, 5 μM
  percentage of GFP-silencing relative to siMOCK: 42%
[4]; Petroselinyl, 5 μM
  percentage of GFP-silencing relative to siMOCK: 18%
[4]; Petroselinyl, 10 μM
  percentage of GFP-silencing relative to siMOCK: 0%
[4]; Petroselinyl, 15 μM
  percentage of GFP-silencing relative to siMOCK: 20%
